# Patent US20030191120A1, “Antiparkinsonism drugs” (priority 2000, published 2003)
# Key:
# [1] = system: reserpine-induced cataleptic posture; assay: Catalepsy test in mice pre-treated with reserpine; format: in vivo, ddy mice (male); conditions: 1 hour after administration
# Description: The effects of compound (IX) in single administration and in combination with L-DOPA on cataleptic responses were examined in mice pre-treated with a monoamine-depleting drug, reserpine. Reserpine (5 mg/kg, i.p., Apoplon Inj, Daiichi Pharmaceutical) was administrated to ddy mice (male). On the next day, compound (IX) (0.3, 1, 3 mg/kg, p.o.) with or without L-DOPA (25, 100 mg/kg, i.p., dissolved in 0.1N HCl and diluted with distilled water for injection (Otsuka Pharmaceutical)) was administrated to the mice and catalepsy test was performed after 1 hour. When L-DOPA was administrated, mice were pre-treated with carbidopa (25 mg/kg, i.p., 0.5% lactic acid) before 30 min. The forelimbs or hindlimbs of each mouse were placed on a 4.5 cm high horizontal bar and the time was measured (cut off time 30 sec) until both legs reach the floor. The cataleptic responses were scored as follows (less than 5 sec.: 0 point, 5 sec. to less than 10 sec.: 1 point, 10 sec to less than 15 sec.: 2 points, 15 sec. to than 20 sec.: 3 points, 20 sec. to less than 25 sec.: 4 points, 25 sec. to less than 30 sec.: 5 points, 30 sec. or more: 6 points). For forelimbs, the scores for 3 repetitive tests were summated. For hindlimbs, the tests were performed 5 times and of which 3 scores were summated excluding the highest and lowest scores. The catalepsy scores were calculated as the total scores for forelimbs and hindlimbs.
# normal mice = assay: Spontaneous locomotor activity after oral administration to normal mice (SCANET apparatus); format: in vivo, C57BL/6 mice (male); conditions: p.o.
# Description: The enhancing effects of compound (IX) on the spontaneous locomotor activity were examined in normal mice.
# Compound (IX) was orally administrated to C57BL/6 mice (male) and the spontaneous locomotor activity was measured with a locomotor activity measuring apparatus (SCANET, TOYO sangyo). Mice were familiarized to the cage of the apparatus for at least 60 min. Compound (IX) (1,3,10 mg/kg) or vehicle (vehicle, distilled water Otsuka) was administrated orally. The spontaneous locomotor activity was measured for 5 hours after the mice were returned to the cage.
# MPTP-treated mice = assay: Spontaneous locomotor activity in MPTP-treated mice (Parkinson's disease model); format: in vivo, C57BL/6 mice (male); conditions: MPTP 40 mg/kg x 2 mice, compound (IX) alone 3 mg/kg p.o., P < 0.05 vs MPTP-treated control group
# Description: Mice injected with a dopaminergic toxin, MPTP were used as a model for Parkinson's disease and the effects of single administration of compound (IX) on the reduction of the spontaneous locomotor activity caused by MPTP-treatment were examined.
# MPTP (40 mg/kg, i.p., saline) was injected twice at 24-hr intervals to C57BL/6 mice (male), and the day after the last administration, the mice were placed in locomotor activity measuring apparatus. After 30 min, compound (IX) alone (0.3, 1, 3 mg/kg, p.o.) was administered.
# 6-OHDA-treated mice = assay: Spontaneous locomotor activity in mice injected intracerebroventricularly with 6-OHDA (Parkinson's disease model); format: in vivo, C57BL/6 mice (male); conditions: 6-OHDA mice
# Description: Mice injected intracerebroventricularly with a monoaminergic toxin, 6-OHDA were used as a model for Parkinson's disease.
# To C57BL/6 mice (male) were administrated desipramine (desipramine (25 mg/kg, i.p., 0.5%), lactic acid) and 6-OHDA (40 μg/μl/mouse, 0.2% ascorbic acid) was injected in the cerebroventricule after 30 min. The mice were placed in the locomotor activity measuring apparatus after one day. Compound (IX) (0.3, 1 mg/kg), with or without L-DOPA (10 mg/kg, i.p., dissolved in 0.1N HCl and diluted with distilled water or injection, Otsuka Pharmaceutical), was administrated after 90 min, then the spontaneous locomotor activity was measured for 5 hours. When L-DOPA was administrated, mice were pre-treated with carbidopa (25 mg/kg, i.p., 0.5% lactic acid) before 30 min.
smiles,measurement,setting,value
C[C@@H]1OC(=O)N[C@@H]1C(=O)NC(Cc1cscn1)C(=O)N1CCC[C@H]1C (stereo in doubt) [Compound (IX)],"catalepsy score, mean",[1]; compound (IX) 1 mg/kg p.o. + L-DOPA 100 mg/kg i.p.,2.3
same,"catalepsy score, mean","[1]; compound (IX) 1 mg/kg p.o. + L-DOPA 100 mg/kg i.p., listed as compound (IX)",significant depression effect
same,"catalepsy score, mean",[1]; compound (IX) 3 mg/kg p.o. + L-DOPA 100 mg/kg i.p.,9.2
same,"catalepsy score, mean","[1]; compound (IX) 3 mg/kg p.o. + L-DOPA 100 mg/kg i.p., listed as compound (IX)",significant depression effect
same,dose at which the spontaneous locomotor activity was increased,normal mice,≥ 3 mg/kg
same,"spontaneous locomotor activity, Total",MPTP-treated mice,5463 ± 700
same,"spontaneous locomotor activity, Total",MPTP-treated mice; listed as compound (IX),significantly increased
same,"spontaneous locomotor activity, Total","6-OHDA-treated mice; compound (IX) 1 mg/kg p.o. in combination with L-DOPA 10 mg/kg i.p. (carbidopa pre-treatment), 5 hours, P < 0.01 vs 6-OHDA-treated group",14468 ± 3618
same,"spontaneous locomotor activity, Total","6-OHDA-treated mice; compound (IX) 1 mg/kg p.o. in combination with L-DOPA 10 mg/kg i.p. (carbidopa pre-treatment), 5 hours, P < 0.01 vs 6-OHDA-treated group, listed as compound (IX)",significant and remarkable increase
same,"spontaneous locomotor activity, Total","6-OHDA-treated mice; compound (IX) 1 mg/kg p.o. in single administration, measured for 5 hours, 1 mg/kg",2512 ± 333
same,"spontaneous locomotor activity, Total","6-OHDA-treated mice; compound (IX) 1 mg/kg p.o. in single administration, measured for 5 hours, listed as compound (IX), 1 mg/kg",did not show significant increase
